According to paper PMC9331182, “Characterization of a novel recombinant halophilic β-glucosidase of Trichoderma harzianum derived from Hainan mangrove” (BMC Microbiology, 2022):

Tested on: T1, Bgl3HB
T1 construct: pPICZalphaA (alpha-factor secretion) in Komagataella phaffii X33; by primers starts MVNNAA and ends QIQDATP plus C-terminal His6; GH3, GH3-C and Fn3-like domains
Assay: pNP release, OD400, Lineweaver-Burk
Assay type: biochemical, Trichoderma harzianum
Details: pH 4.0, 50 °C, 10 min
Description: pNP release, OD400, Lineweaver-Burk on Bgl3HB

## O=[N+]([O-])c1ccc(O[C@@H]2O[C@H](CO)[C@@H](O)[C@H](O)[C@H]2O)cc1 [pNPG]
  Km: 1220 µM
